Data reported in paper PMC2713365 (International journal for parasitology, 2009).

How the values were obtained:
AsGAR-1 [1] = molecular target: T1, AsGAR-1 (Ascaris suum, UniProt C0KJK1); assay: cell-based; details: read-out: yeast functional expression, growth reporter, agonist at 10^-4 M
AsGAR-1 [2] = molecular target: T1, AsGAR-1; assay: yeast functional expression, antagonism of […] ACh by […] compound; type: cell-based; details: read-out: % inhibition at 10^-4 M
AsGAR-1 [3] = molecular target: T1, AsGAR-1; assay: as above; type: cell-based; details: read-out: % of control growth at 10^-4 M

SMILES | fold induction at 100 µM (AsGAR-1 [1]) | remaining activity at 100 µM (AsGAR-1 [3]) [%] | other results
COC(=O)C1=CCCN(C)C1 [Arec, arecoline] | 10.2 ± 1.6 |  | 
CN1[C@@H]2CC[C@H]1C[C@@H](OC(=O)C(CO)c1ccccc1)C2 (some centres unmarked) [Atr, atropine] |  |  | inhibition at 100 µM (AsGAR-1 [2]): 62.2%
CC(C[N+](C)(C)C)OC(N)=O (centres unmarked) [Beth, bethanechol] | 7.7 ± 0.8 |  | 
C[N+](C)(C)CCOC(N)=O [Carb, carbachol] | 10.8 ± 1.7 |  | 
CN1CCN2c3ccccc3Cc3ccccc3C2C1 (centres unmarked) [Mian, mianserin] |  | 24 ± 0.1 | 
C[N+](C)(C)CC#CCN1CCCC1=O [Oxo, oxotremorine M] | 8.2 ± 1.7 |  | 
CC(C)NCC(O)COc1cccc2ccccc12 (centres unmarked) [Prop, propranolol] |  | 41.2 ± 8.9 | 
O=C(CCCN1CCC2(CC1)C(=O)NCN2c1ccccc1)c1ccc(F)cc1 [Spip, spiperone] |  | 52.8 ± 7.6 | 
